In patent US20120277209A1, “PYRAZINE COMPOUNDS AS PHOSPHODIESTERASE 10 INHIBITORS” (Amgen Inc., priority 2009, published 2012):

Target: PDE10 (UniProt Q9Y233)
Experiment: PDE10 enzyme inhibition, IMAP TR-FRET assay (MPDE10A7 Enzyme Activity and Inhibition)
Assay type: biochemical
Conditions: IC50 class against PDE10; read-out: IC50
Method: All compounds were divided in five classes based on their IC50 values against PDE10. The range of the IC50 in each class is as follows:
An IMAP TR-FRET assay was used to analyze the enzyme activity (Molecular Devices Corp., Sunnyvale Calif.). 5 μL of serial diluted PDE10A (BPS Bioscience, San Diego, Calif.) or tissue homogenate was incubated with equal volumes of diluted fluorescein labeled cAMP or cGMP for 60 min in 384-well polystyrene assay plates (Corning, Corning, N.Y.) at room temperature. After incubation, the reaction was stopped by adding 60 μL of diluted binding reagents and was incubated for 3 hours to overnight at room temperature. The plates were read on an Envision (Perkin Elmer, Waltham, Mass.) for time resolved fluorescence resonance energy transfer. The data were analyzed with GraphPad Prism (La Jolla, Calif.).
Enzyme Inhibition. To check the inhibition profile, 5 μL of serial diluted compounds were incubated with 5 μL of diluted PDE10 enzyme (BPS Bioscience, San Diego, Calif.) or tissue homogenate in a 384-well polystyrene assay plate (Corning, Corning, N.Y.) for 30 min at room temperature. After incubation, 10 μL of diluted fluorescein labeled cAMP or cGMP substrate were added and incubated for 60 min at room temperature. The reaction was stopped by adding 60 μL of diluted binding reagents and plates were read on an Envision (Perkin Elmer, Waltham, Mass.) for time resolved fluorescence resonance energy transfer. The data were analyzed with GraphPad Prism (La Jolla, Calif.).
The tabulated IC50 data represent an average IC50 data for each compound.

Structure (SMILES)	IC50 [nM]
COc1ccc(-c2nccnc2Oc2ccc(C(=O)c3nc4ccccc4[nH]3)cc2)c(OC)n1 [Example 111, (1H-benzo[d]imidazol-2-yl)(4-(3-(2,6-dimethoxypyridin-3-yl)pyrazin-2-yloxy)phenyl)methanone]	25 to 100
O=C(c1ccc(Oc2nccnc2-c2ccncc2)cc1)c1nc2ccccc2[nH]1 [Example 124, (1H-benzo[d]imidazol-2-yl)(4-(3-(pyridin-4-yl)pyrazin-2-yloxy)phenyl)methanone]	< 25
CC(C)(O)C1CCN(c2nccnc2Oc2ccc(Nc3nc4ccccc4s3)cc2)CC1 [Example 66, 2-(1-(3-(4-(benzo[d]thiazol-2-ylamino)phenoxy)pyrazin-2-yl)piperidin-4-yl)propan-2-ol]	< 25
c1ccc2sc(Nc3ccc(Oc4nccnc4C4CCOC4)cc3)nc2c1 (stereo not shown) [Example 221, N-(4-(3-(TETRAHYDROFURAN-3-YL)PYRAZIN-2-YLOXY)PHENYL)BENZO[D]THIAZOL-2-AMINE]	< 25
O[C@H]1CCC[C@H](c2nccnc2Oc2ccc(Nc3nc4ccccc4s3)cc2)C1 (racemic) [Example 192, (rac)-trans-3-(3-(4-(benzo[d]thiazol-2-ylamino)phenoxy)pyrazin-2-yl)cyclohexanol]	< 25
Fc1cccc2nc(Nc3ccc(Oc4nccnc4Cl)cc3)sc12 [Example 100, N-(4-(3-chloropyrazin-2-yloxy)-phenyl)-7-fluorobenzo[d]thiazol-2-amine]	1000 to 5000
COc1ncccc1-c1nccnc1Oc1ccc(C(=O)c2nc3cc(F)ccc3[nH]2)cc1 [Example 117, (5-fluoro-1H-benzo[d]imidazol-2-yl)(4-(3-(2-methoxypyridin-3-yl)pyrazin-2-yloxy)phenyl)methanone]	25 to 100
CC(C)Oc1nccnc1Oc1ccc(C(=O)c2nc3ccccc3[nH]2)cc1 [Example 161, (1H-benzo[d]imidazol-2-yl)(4-(3-isopropoxypyrazin-2-yloxy)phenyl)methanone]	1000 to 5000
CC(C)n1c(C(=O)c2ccc(Oc3nccnc3N3CCOCC3)cc2)nc2ccccc21 [Example 6, (1-ISOPROPYL-1H-BENZO[D]IMIDAZOL-2-YL)(4-(3-MORPHOLINOPYRAZIN-2-YLOXY)PHENYL)METHANONE]	25 to 100
N#Cc1ccc(-c2nccnc2Oc2ccc(C(=O)c3nc4ccccc4[nH]3)cc2)cc1 [Example 108, 4-(3-(4-(1H-benzo[d]imidazole-2-carbonyl)phenoxy)pyrazin-2-yl)benzonitrile]	< 25
O=C(c1ccc(Oc2nccnc2C(=O)NCCc2ccc(C(F)(F)F)cc2)cc1)c1nc2ccccc2[nH]1 [Example 255, 3-(4-(1H-benzo[d]imidazole-2-carbonyl)phenoxy)-N-(4-(trifluoromethyl)phenethyl) pyrazine-2-carboxamide]	< 25
COC1CCN(c2nccnc2Oc2ccc(Nc3nc4ccccc4s3)cc2)CC1 [Example 92, N-(4-(3-(4-methoxypiperidin-1-yl)pyrazin-2-yloxy)phenyl)-benzo[d]thiazol-2-amine]	< 25
N#CCC(=O)N1CCC(c2nccnc2Oc2ccc(C(=O)c3nc4ccccc4[nH]3)cc2)CC1 [Example 247, 3-(4-(3-(4-(1H-benzo[d]imidazole-2-carbonyl)phenoxy)pyrazin-2-yl)piperidin-1-yl)-3-oxopropanenitrile]	< 25
OC[C@@H]1CCCN1c1nccnc1Oc1ccc(Nc2nc3ccccc3s2)cc1 [Example 76, (S)-(1-(3-(4-(benzo[d]thiazol-2-ylamino)phenoxy)pyrazin-2-yl)pyrrolidin-2-yl)methanol]	< 25
O=C(c1ccc(Oc2nccnc2C(=O)NCCO)cc1)c1nc2ccccc2[nH]1 [Example 258, 3-(4-(1H-benzo[d]imidazole-2-carbonyl)phenoxy)-N-(2-hydroxyethyl)pyrazine-2-carboxamide]	25 to 100
CN1CCC(c2nccnc2Oc2ccc(C(=O)c3nc4ccccc4[nH]3)cc2)=CC1=O [Example 252, 4-(3-(4-(1H-benzo[d]imidazole-2-carbonyl)phenoxy)pyrazin-2-yl)-1-methyl-5,6-dihydropyridin-2(1H)-one]	< 25
CC1CN(c2nccnc2Oc2ccc(Nc3nc4ccccc4s3)cc2)CC(C)O1 (stereo not shown) [Example 74, N-(4-(3-(2,6-dimethylmorph-olino)pyrazin-2-yloxy)phenyl)-benzo[d]thiazol-2-amine]	25 to 100
N#CC1CCN(c2nccnc2Oc2ccc(Nc3nc4ccccc4s3)cc2)CC1 [Example 70, 1-(3-(4-(benzo[d]thiazol-2-ylamino)phenoxy)pyrazin-2-yl)piperidine-4-carbonitrile]	< 25
Cc1ncsc1CCOc1nccnc1Oc1ccc(C(=O)c2nc3ccccc3[nH]2)cc1 [Example 170, (1H-benzo[d]imidazol-2-yl)(4-(3-(2-(4-methylthiazol-5-yl)ethoxy)pyrazin-2-yloxy)phenyl)methanone]	100 to 250
c1ccc2sc(Nc3ccc(Oc4nccnc4N4CCC5(CC4)OCCO5)cc3)nc2c1 [Example 99, N-(4-(3-(1,4-dioxa-8-azaspiro[4.5]-decan-8-yl)pyrazin-2-yloxy)phenyl)-benzo[d]thiazol-2-amine]	25 to 100

Same assay, conditions: PDE10 enzyme inhibition; average IC50 data for each compound; read-out: Average IC50

Structure (SMILES)	IC50 [nM]
C[C@]1(O)CC[C@H](c2nccnc2Oc2ccc(C(=O)c3nc4ccccc4[nH]3)cc2)CC1 [drawing 922]	0.748
CCCOc1nccnc1Oc1ccc(C(=O)c2nc3ccccc3[nH]2)cc1 [drawing 905]	25.2
COc1ccncc1-c1nccnc1Oc1ccc(C(=O)c2nc3ccccc3[nH]2)cc1 [drawing 990]	0.533
C[C@@H](F)C(=O)N1CCC(c2nccnc2Oc2ccc(C(=O)c3nc4ccccc4[nH]3)cc2)CC1 [drawing 976]	0.005
O=C1CCC(c2nccnc2Oc2ccc(C(=O)c3nc4ccccc4[nH]3)cc2)CC1 [drawing 911]	0.199
O=C(c1ccc(Oc2nccnc2OCCN2CCOCC2)cc1)c1nc2ccccc2[nH]1 [drawing 855]	89.5
O[C@@H]1C=C(c2nccnc2Oc2ccc(Nc3nc4ccccc4s3)c(F)c2)CCC1 (stereo in doubt)	7.9
COc1cc(-c2nccnc2Oc2ccc(Nc3nc4ccccc4s3)cc2)ccn1 [drawing 958]	46.4
COC(=O)[C@@H]1CCN(c2nccnc2Oc2ccc(C(=O)c3nc4ccccc4[nH]3)cc2)C1 [drawing 838]	1.35
CC(=O)N1CCC(c2nccnc2Oc2ccc(C(=O)c3nc4ccccc4n3C)cc2)CC1 [drawing 965]	0.174
O=C(c1ccc(Oc2nccnc2C2=CCOCC2)cc1)c1nc2ncccc2[nH]1 [drawing 879]	31.7
O=C(c1ccc(Oc2nccnc2Cl)cc1)c1nc2cccc(F)c2[nH]1	406
O=C(c1ccc(Oc2nccnc2C2(F)CCOCC2)cc1)c1nc2ccccc2[nH]1 [drawing 924]	1.83
Fc1cc(Oc2nccnc2C2CCOCC2)ccc1Nc1nc2ccccc2s1 [drawing 877]	2.64
CC(C)(O)[C@H]1CCCN(c2nccnc2Oc2ccc(C(=O)c3nc4ccccc4[nH]3)cc2)C1 (stereo in doubt)	29
N#C[C@@H]1CCCN(c2nccnc2Oc2ccc(C(=O)c3nc4ccccc4[nH]3)cc2)C1 (stereo in doubt)	6.79

Structure (SMILES)	IC50 [nM]
O=C(c1ccc(Oc2nccnc2[C@H]2CCCOC2)cc1)c1nc2ccccc2[nH]1 (stereo in doubt)	2.59
O=C(c1ccc(Oc2nccnc2-c2ccc[nH]c2=O)cc1)c1nc2ccccc2[nH]1 [drawing 938]	7.08
O=C(c1ccc(Oc2nccnc2Oc2cccnc2)cc1)c1nc2ccccc2[nH]1 [drawing 851]	51.5
CN1CCC(c2nccnc2Oc2ccc(C(=O)c3nc4ccccc4[nH]3)cc2)CC1=O (stereo not shown) [drawing 926]	6.02
O=C1C=C(c2nccnc2Oc2ccc(Nc3nc4ccccc4s3)c(F)c2)CCC1 [drawing 998]	22.1
O=C(c1ccc(Oc2nccnc2N2CCC(C(=O)O)CC2)cc1)c1nc2ccccc2[nH]1	1.18
CC(=O)N1CC=C(c2nccnc2Oc2ccc(C(=O)c3nc4ccccc4[nH]3)cc2)CC1 [drawing 751]	1.16
CN(c1ccc(Oc2nccnc2C2CCOCC2)cc1)c1nc2ccccc2s1 [drawing 870]	11.8
Fc1ccc2sc(Nc3ccc(Oc4nccnc4C4CCOCC4)cc3)nc2c1 [drawing 881]	11.8
O=C(c1ccc(Oc2nccnc2C2CCOCC2)cc1)c1nc2ncccc2[nH]1 [drawing 890]	7.72
OCCC1CCN(c2nccnc2Oc2ccc(Nc3nc4ccccc4s3)cc2)CC1 [drawing 735]	9.55
O[C@@H]1CCC[C@H](c2nccnc2Oc2ccc(Nc3nc4ccccc4s3)cc2)C1 [drawing 910]	2.22
Cn1c(C(=O)c2ccc(Oc3nccnc3C3CCOCC3)cc2)nc2ccccc21 [drawing 874]	1.31
N#CC1(c2nccnc2Oc2ccc(C(=O)c3nc4ccccc4[nH]3)cc2)CCOCC1 [drawing 868]	2.5
C[C@@H]1CN(c2nccnc2Oc2ccc(Nc3nc4ccccc4s3)cc2)CC(=O)N1 (racemic)	4.64

Same assay, conditions: PDE10 enzyme inhibition; chiral compounds separated from racemic mixtures; read-out: IC50

Structure (SMILES)	IC50 [nM]
O=C1CCC[C@H](c2nccnc2Oc2ccc(Nc3nc4ccccc4s3)cc2)C1 [Example 282, (S)-3-(3-(4-(benzo[d]thiazol-2-ylamino)phenoxy)pyrazin-2-yl)cyclohexanone]	< 25
